These results are taken from patent US7964560B2, “Hepatitis C virus inhibitors” (Bristol-Myers Squibb Company, priority 2008, dated 2011).

The subject of test [1] is HCV replicon in HUH-7 cells. The test is described as follows: HCV replicon FRET assay. Format: cell-based, Hepatitis C virus (strain 1b). To be noted: Hepatitis C virus, Huh-7; Table 2, HCV replicon, activity range; replicon assay format not stated; read-out: EC50. From the text: An HCV replicon whole cell system was established as described by Lohmann, V. et al., Science, 285(5424):110-113 (1999). This system enabled us to evaluate the effects of our HCV Protease compounds on HCV RNA replication. Briefly, using the HCV strain 1b sequence described in the Lohmann paper (Accession number: AJ238799), an HCV cDNA was synthesized by Operon Technologies, Inc. (Alameda, Calif.), and the full-length replicon was then assembled in plasmid pGem9zf(+) (Promega, Madison, Wis.) using standard molecular biology techniques. The replicon consists of (i) the HCV 5′ UTR fused to the first 12 amino acids of the capsid protein, (ii) the neomycin phosphotransferase gene (neo), (iii) the IRES from encephalomyocarditis virus (EMCV), and (iv) HCV NS3 to NS5B genes and the HCV 3′ UTR. Plasmid DNAs were linearized with ScaI and RNA transcripts were synthesized in vitro using the T7 MegaScript transcription kit (Ambion, Austin, Tex.) according to manufacturer's directions. In vitro transcripts of the cDNA were transfected into the human hepatoma cell line, HUH-7. […] Resulting cell lines were characterized for positive and negative strand RNA production and protein production over time.
The HCV replicon FRET assay was developed to monitor the inhibitory effects of compounds described in the disclosure on HCV viral replication. HUH-7 cells, constitutively expressing the HCV replicon, were grown in Dulbecco's Modified Eagle Media (DMEM) (Gibco-BRL) containing 10% Fetal calf serum (FCS) (Sigma) and 1 mg/ml G418 (Gibco-BRL). Cells were seeded the night before (1.5×10^4 cells/well) in 96-well tissue-culture sterile plates. Compound and no compound controls were prepared in DMEM containing 4% FCS, 1:100 Penicillin/Streptomysin (Gibco-BRL), 1:100 L-glutamine and 5% DMSO in the dilution plate (0.5% DMSO final concentration in the assay). Compound/DMSO mixes were added to the cells and incubated for 4 days at 37° C. After 4 days, cells were first assessed for cytotoxicity using alamar Blue (Trek Diagnostic Systems) for a CC50 reading. The toxicity of compound (CC50) was determined by adding 1/10th volume of alamar Blue to the media incubating the cells. After 4 h, the fluorescence signal from each well was read, with an excitation wavelength at 530 nm and an emission wavelength of 580 nm, using the CYTOFLUOR® Series 4000 (Perspective Biosystems). Plates were then rinsed thoroughly with Phosphate-Buffered Saline (PBS) (3 times 150 μl). The cells were lysed with 25 μl of a lysis assay reagent containing an HCV protease substrate (5× cell Luciferase cell culture lysis reagent (PROMEGA® #E153A) diluted to 1× with distilled water, NaCl added to 150 mM final, the FRET peptide substrate (as described for the enzyme assay above) diluted to 10 μM final from a 2 mM stock in 100% DMSO. The plate was then placed into the CYTOFLUOR® 4000 instrument which had been set to 340 nm excitation/490 nm emission, automatic mode for 21 cycles and the plate read in a kinetic mode. EC50 determinations were carried out as described for the IC50 determinations.

The target in test [2] is T1, HCV NS3/4A protease complex, BMS strain (UniProt P27958, species not given/STRAIN_BMS).
T1 construct: said of H77 and J4L6S; fused on or other part: three-lysine solubilising tail at the end of NS4A (printed for the H77 and J4L6S constructs; probably the same for BMS)
T1 sequence (P27958 1027-1657, change not shown, one chain of several): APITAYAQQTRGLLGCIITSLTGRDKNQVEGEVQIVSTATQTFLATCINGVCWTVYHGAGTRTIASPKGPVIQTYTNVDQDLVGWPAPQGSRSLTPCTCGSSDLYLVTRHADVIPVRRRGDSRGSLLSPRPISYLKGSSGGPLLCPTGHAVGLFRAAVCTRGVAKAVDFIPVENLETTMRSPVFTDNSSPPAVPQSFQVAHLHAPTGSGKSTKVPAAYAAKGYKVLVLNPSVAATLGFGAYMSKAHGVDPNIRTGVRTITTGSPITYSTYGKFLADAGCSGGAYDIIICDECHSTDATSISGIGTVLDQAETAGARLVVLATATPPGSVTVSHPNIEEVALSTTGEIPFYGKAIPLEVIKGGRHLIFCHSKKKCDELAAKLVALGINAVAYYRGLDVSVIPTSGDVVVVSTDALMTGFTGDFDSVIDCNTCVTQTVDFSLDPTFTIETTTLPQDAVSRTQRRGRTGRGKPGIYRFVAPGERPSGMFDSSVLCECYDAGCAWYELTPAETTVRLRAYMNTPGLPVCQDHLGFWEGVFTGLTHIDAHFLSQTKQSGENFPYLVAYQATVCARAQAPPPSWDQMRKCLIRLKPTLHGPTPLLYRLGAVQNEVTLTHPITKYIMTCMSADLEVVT
Briefly: FRET peptide assay to monitor HCV NS3/4A proteolytic activity (BMS strain). To be noted: Table 2, NS3/4A BMS strain, activity range. The class given is biochemical, Hepatitis C virus (genotype 1a). From the text:
HCV […] protease complexes, derived from the BMS strain, H77 strain or J4L6S strain, were generated, as described below. These purified recombinant proteins were generated for use in a homogeneous assay (see below) to provide an indication of how effective compounds of the present disclosure would be in inhibiting HCV NS3 proteolytic activity.
Serum from an HCV-infected patient was obtained from Dr. T. Wright, San Francisco Hospital. An engineered full-length cDNA (compliment deoxyribonucleic acid) template of the HCV genome (BMS strain) was constructed from DNA fragments obtained by reverse transcription-PCR (RT-PCR) of serum RNA (ribonucleic acid) and using primers selected on the basis of homology between other genotype 1a strains. From the determination of the entire genome sequence, a genotype 1a was assigned to the HCV isolate according to the classification of Simmonds et al. (See Simmonds, P. et al., J. Clin. Microbiol., 31(6), 1493-1503 (1993)). […] The infectious clones, H77 (1a genotype) and J4L6S (1b genotype) were obtained from R. Purcell (NIH) and the sequences are published in GENBANK® (AAB67036, see Yanagi, M. et al., Proc. Natl. Acad. Sci. U.S.A., 94(16):8738-8743 (1997); AF054247, see Yanagi, M. et al., Virology, 244(1):161-172 (1998)).
The H77 and J4L6S strains were used for production of recombinant NS3/4A protease complexes. DNA encoding the recombinant HCV NS3/4A protease complex (amino acids 1027 to 1711) for these strains were manipulated as described by P. Gallinari et al. (see Gallinari, P. et al, Biochemistry, 38(17):5620-5632 (1999)). Briefly, a three-lysine solubilizing tail was added at the 3′-end of the NS4A coding region. The cysteine in the P1 position of the NS4A-NS4B cleavage site (amino acid 1711) was changed to a glycine to avoid the proteolytic cleavage of the lysine tag. Furthermore, a cysteine to serine mutation was introduced by PCR at amino acid position 1454 to prevent the autolytic cleavage in the NS3 helicase domain. The variant DNA fragment was cloned in the pET21b bacterial expression vector (Novagen) and the NS3/4A complex was expressed in Escherichia. coli strain BL21 (DE3) (Invitrogen) following the protocol described by P. Gallinari et al. (see Gallinari, P. et al., J. Virol., 72(8):6758-6769 (1998)) with modifications. Briefly, the NS3/4A protease complex expression was induced with 0.5 millimolar (mM) Isopropyl β-D-1-thiogalactopyranoside (IPTG) for 22 hours (h) at 20° C. A typical fermentation (1 Liter (L)) yielded approximately 10 grams (g) of wet cell paste. The cells were resuspended in lysis buffer (10 mL/g) consisting of 25 mM N-(2-hydroxyethyl)piperazine-N′-(2-ethane sulfonic acid) (HEPES), pH 7.5, 20% glycerol, 500 mM sodium chloride (NaCl), 0.5% Triton X-100, 1 microgram/milliliter (“μg/mL”) lysozyme, 5 mM magnesium chloride (MgCl2), 1 μg/ml DnaseI, 5 mM β-mercaptoethanol (βME), protease inhibitor-ethylenediamine tetraacetic acid (EDTA) free (Roche), homogenized and incubated for 20 minutes (min) at 4° C. The homogenate was sonicated and clarified by ultra-centrifugation at 235000 g for 1 hour (h) at 4° C. Imidazole was added to the supernatant to a final concentration of 15 mM and the pH adjusted to 8.0. The crude protein extract was loaded on a Nickel-Nitrilotriacetic acid (Ni-NTA) column pre-equilibrated with buffer B (25 mM HEPES, pH 8.0, 20% glycerol, 500 mM NaCl, 0.5% Triton X-100, 15 mM imidazole, 5 mM βME). The sample was loaded at a flow rate of 1 mL/min. The column was washed with 15 column volumes of buffer C (same as buffer B except with 0.2% Triton X-100). The protein was eluted with 5 column volumes of buffer D (same as buffer C except with 200 mM Imidazole).
NS3/4A protease complex-containing fractions were pooled and loaded on a desalting column Superdex-S200 pre-equilibrated with buffer D (25 mM HEPES, pH 7.5, 20% glycerol, 300 mM NaCl, 0.2% Triton X-100, 10 mM βME). Sample was loaded at a flow rate of 1 mL/min. […]

Regarding `C=C[C@@H]1C[C@]1(NC(=O)[C@@H]1C[C@@](SC(C)C)(c2ccc(-c3ccccc3)cc2)CN1C(=O)[C@@H](NC(=O)OC1(C)CCCC1)C(C)(C)C)C(=O)NS(=O)(=O)C1CC1` [Example 11, 1-methylcyclopentyl (S)-1-((2S,4R)-4-(biphenyl-4-yl)-2-((1R,2S)-1-(cyclopropylsulfonylcarbamoyl)-2-vinylcyclopropylcarbamoyl)-4-(isopropylthio)pyrrolidin-1-yl)-3,3-dimethyl-1-oxobutan-2-ylcarbamate], the concentration for a half-maximal effect (EC50) in test [1] was in the range of 6 to 100 nM. The IC50 in test [2] was 1 to 20 nM.

Regarding `C=CCS[C@@]1(c2ccc(-c3ccccc3)cc2)C[C@@H](C(=O)N[C@]2(C(=O)NS(=O)(=O)C3CC3)C[C@H]2C=C)N(C(=O)[C@@H](NC(=O)OC(C)(C)C)C(C)(C)C)C1` [Example 12, tert-butyl (S)-1-((2S,4R)-4-(allylthio)-4-(biphenyl-4-yl)-2-((1R,2S)-1-(cyclopropylsulfonylcarbamoyl)-2-vinylcyclopropylcarbamoyl)pyrrolidin-1-yl)-3,3-dimethyl-1-oxobutan-2-ylcarbamate], in test [1], the EC50 was 6 to 100 nM. In addition, the IC50 in test [2] was 1 to 20 nM.

For orientation: EC50 means the concentration at which the effect is half-maximal. As a reminder, the IC50 is the midpoint of a concentration-inhibition curve.
